Data as given in the NIST ThermoML archive (doi:10.1016/j.jct.2012.09.032).
Numbers after ± are expanded uncertainties.

Settings: Liquid, Ebulliometric method (Recirculating still)

CCO [ethanol]
Settings | vapor or sublimation pressure [kPa]
295.25 K | 6.7 ± 0.1
307.45 K | 13.3 ± 0.27
315.05 K | 20 ± 0.41
321.05 K | 26.7 ± 0.57
325.65 K | 33.3 ± 0.7
329.55 K | 40 ± 0.86
332.85 K | 46.7 ± 1
335.95 K | 53.3 ± 1.2
338.65 K | 60 ± 1.4
341.15 K | 66.7 ± 1.6

OCC(O)CO [glycerol]
Settings | vapor or sublimation pressure [kPa]
477.25 K | 6.7 ± 0.12
493.35 K | 13.3 ± 0.37
505.55 K | 20 ± 0.58
513.95 K | 26.7 ± 0.76
520.65 K | 33.3 ± 0.87

CO [methanol]
Settings | vapor or sublimation pressure [kPa]
282.55 K | 6.7 ± 0.1
293.75 K | 13.3 ± 0.27
301.45 K | 20 ± 0.41
307.35 K | 26.7 ± 0.56
311.85 K | 33.3 ± 0.7
315.75 K | 40 ± 0.86
319.05 K | 46.7 ± 1
322.05 K | 53.3 ± 1.2
324.65 K | 60 ± 1.4
327.25 K | 66.7 ± 1.6

O [water]
Settings | vapor or sublimation pressure [kPa]
311.15 K | 6.7 ± 0.11
324.55 K | 13.3 ± 0.35
361.85 K | 66.7 ± 2.8
